Measurements published in patent US12590062B2, “PD-1/PD-L1 inhibitors” (Gilead Sciences, Inc., priority 2017, dated 2026).

How the values were obtained:
PD-L1 = target: T1, PD-L1 (Homo sapiens, UniProt Q9NZQ7); experiment: PD-L1/PD-L1 dimerization biochemical protein-protein interaction assay (ALPHA); assay type: binding; settings: compound-induced PD-L1 dimerization, head prints '1 nM' (0.5 nM His-tagged PD-L1 and 0.5 nM FLAG-tagged PD-L1), read-out: AC50 PDL1 Dimer Alpha 1 nM
T1 construct: determine if they can specifically dimerize the extracellular domains of PD-L1
Outline: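 After 2 h at 25 °C with compound, His- and FLAG-tagged PD-L1 ECDs (each 0.5 nM final; 25 mM Hepes pH 7.4, 150 mM NaCl) were detected by sequential anti-His acceptor and anti-FLAG donor bead incubations. Dose-response curves fitted to four-parameter equation for AC50.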

PD-1/PD-L1 interaction = target: T2, PD-1/PD-L1 interaction (Homo sapiens, UniProt Q9NZQ7); experiment: PD-1/PD-L1 NFAT reporter co-culture assay; assay type: cell-based; settings: Jurkat PD-1 NFAT-luciferase cells co-cultured with aAPC-PD-L1 CHO cells, 6 hrs at 37° C.; read-out: EC50 NFAT Luciferase
T2 construct: expressed in transfected cells; host or cells: CHO cells (aAPC-PD-L1) co-cultured with Jurkat cells overexpressing PD-1 and an NFAT-luciferase reporter
Outline: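 Restoration of TCR-driven NFAT luciferase signal: 6 h, 37 °C co-culture of PD-1 Jurkat reporter cells (pre-mixed with compound) on overnight-seeded PD-L1/anti-CD3 CHO monolayer. ONE-Glo luminescence; dose-response fitted to four-parameter equation for EC50.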

PD-1/PD-L1 = PD-1/PD-L1 (Homo sapiens, UniProt Q9NZQ7); experiment: PD-1/PD-L1 biochemical protein-protein interaction assay (ALPHA); assay type: binding; settings: 0.3 nM His tagged PD-L1, 2.5 nM biotinylated Fc-PD-1, 60 minutes at 25° C., read-out: IC50 PD-L1-PD-1 Alpha IC50-mono PD-L1-fcP-D1
Outline: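 Compound blockade of the PD-1/PD-L1 extracellular-domain interaction measured as reduced ALPHA signal after 60 min at 25 °C, pH 7.4 Hepes buffer with EDTA, Tween 20 and BSA. Final proteins: His-tagged PD-L1 0.3 nM, biotinylated Fc-PD-1 2.5 nM; four-parameter curve fit gives IC50.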

T2 sequence (Q9NZQ7 19-290): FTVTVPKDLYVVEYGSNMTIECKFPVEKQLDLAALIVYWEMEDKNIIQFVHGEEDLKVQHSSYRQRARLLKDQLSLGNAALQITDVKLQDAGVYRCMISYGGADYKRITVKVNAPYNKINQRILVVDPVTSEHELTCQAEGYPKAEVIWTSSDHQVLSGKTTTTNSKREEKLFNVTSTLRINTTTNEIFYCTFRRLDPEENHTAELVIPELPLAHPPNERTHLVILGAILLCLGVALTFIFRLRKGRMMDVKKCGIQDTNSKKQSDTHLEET
Chain of PD-1/PD-L1 (Q9NZQ7 19-238 limits assumed): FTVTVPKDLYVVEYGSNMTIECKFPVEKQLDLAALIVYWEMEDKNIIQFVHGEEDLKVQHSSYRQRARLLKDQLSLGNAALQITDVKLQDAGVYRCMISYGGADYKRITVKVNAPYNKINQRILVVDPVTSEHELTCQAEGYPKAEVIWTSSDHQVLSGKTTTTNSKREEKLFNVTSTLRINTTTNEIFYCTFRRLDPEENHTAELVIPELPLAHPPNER
T1 sequence (Q9NZQ7 19-238 limits assumed): as above
T1 sequence (Q9NZQ7 19-238 limits assumed): as above

AC50 (PD-L1) [nM]	EC50 (PD-1/PD-L1 interaction) [nM]	IC50 (PD-1/PD-L1) [nM]	Compound
231	437	0.414	Cc1c(COc2cc(OCc3cncc(C#N)c3)c(CNC[C@@H](O)CC(=O)O)cc2Cl)cccc1-c1cccc(-c2ccc(CN3CC[C@H](O)C3)cc2)c1C [Example 335, (S)-4-((5-chloro-2-((5-cyanopyridin-3-yl)methoxy)-4-((4″-(((S)-3-hydroxypyrrolidin-1-yl)methyl)-2,2′-dimethyl-[1,1′:3′,1″-terphenyl]-3-yl)methoxy)benzyl)amino)-3-hydroxybutanoic acid]
7930	≥ 50000	0.214	COc1nc(-c2cccc(-c3cccc(N4Cc5cc(CN6CC7(C6)CN(C(C)=O)C7)ccc5C4=O)c3Cl)c2Cl)ccc1CN1CC2(C1)CN(C(C)=O)C2 [Example 599, 5-((6-acetyl-2,6-diazaspiro[3.3]heptan-2-yl)methyl)-2-(3′-(5-((6-acetyl-2,6-diazaspiro[3.3]heptan-2-yl)methyl)-6-methoxypyridin-2-yl)-2,2′-dichloro-[1,1′-biphenyl]-3-yl)isoindolin-1-one]
111	152	0.704	COc1nc(-c2cccc(-c3cccc4c3CC[C@@H]4Oc3nc(OC)c(CNC[C@@H]4CCC(=O)N4)cc3Br)c2Br)ccc1CNC[C@@H]1CCC(=O)N1 [Example 698]
34.8	27	0.064	COc1nc(O[C@H]2CCc3c(-c4cccc(-c5cnc6c(CN7CC8(CNC(=O)C8)C7)cn(C)c6n5)c4Cl)cccc32)c(Cl)cc1CN1CC[C@@H](C(=O)O)C1 [Example 525]
89.3	47	0.301	COc1cc(-c2cccc(-c3cccc(-c4ccc(CNC[C@@H]5CCC(=O)N5)c(OC)c4)c3Cl)c2Cl)ccc1CNC[C@@H]1CCC(=O)N1 [Example 513]
51	50	0.068	COc1nc(-c2cccc(-c3cccc4c3CC[C@@H]4Oc3nc(OC)c(CN[C@@](C)(CO)C(=O)O)cc3Br)c2Br)ccc1CNC[C@@H]1CCC(=O)N1 [Example 697]
547	714	9.24	Cc1c(COc2cc(O)c(CNCCCP(=O)(O)O)cc2Cl)cccc1-c1cccc(COc2cc(OCc3cncc(C#N)c3)c(CNCCCP(=O)(O)O)cc2Cl)c1C [Example 294, (3-((5-chloro-4-((3′-((2-chloro-5-((5-cyanopyridin-3-yl)methoxy)-4-(((3-phosphonopropyl)amino)methyl)phenoxy)methyl)-2,2′-dimethyl-[1,1′-biphenyl]-3-y)methoxy)-2-hydroxybenzyl)amino)propyl)phosphonic acid]
729	≥ 50000	2.45	COc1nc(-c2cccc(-c3cccc(-c4ccc5c(c4)CCC(N)C5)c3Cl)c2Cl)ccc1CN1CC2(CCC(=O)N2)C1 (stereo not drawn) [Example 612]
120	306	0.374	COc1cc(COc2cccc(-c3cccc(COc4cc(OCc5cncc(C#N)c5)c(CNC[C@@H](O)CC(=O)O)cc4Cl)c3C)c2C)c(Cl)cc1CNC[C@@H](O)CC(=O)O [Example 389, (S)-4-((4-(((3′-((4-((((S)-3-carboxy-2-hydroxypropyl)amino)methyl)-2-chloro-5-((5-cyanopyridin-3-yl)methoxy)phenoxy)methyl)-2,2′-dimethyl-[1,1′-biphenyl]-3-yl)oxy)methyl)-5-chloro-2-methoxybenzyl)amino)-3-hydroxybutanoic acid]
109	398	0.124	Cc1c(COc2cc(OCc3cncc(C#N)c3)c(CN[C@@](C)(CO)C(=O)O)cc2Cl)cccc1-c1cccc(-c2ccc(CN3CC[C@H](O)C3)cc2)c1C [Example 336, (S)-2-((5-chloro-2-((5-cyanopyridin-3-yl)methoxy)-4-((4″-(((S)-3-hydroxypyrrolidin-1-yl)methyl)-2,2′-dimethyl-[1,1′:3′,1″-terphenyl]-3-yl)methoxy)benzyl)amino)-3-hydroxy-2-methylpropanoic acid]
2840	2280	1.26	COc1nc(-c2cccc(-c3cccc(-c4nc5ccc(CNC[C@@H]6CCC(=O)N6)cn5n4)c3Cl)c2Cl)ccc1CNC[C@@H]1CCC(=O)N1 [Example 633]
80.8	287	0.28	C[C@@](CO)(NCc1cc(Cl)c(O[C@H]2CCc3c(-c4cccc5c4CC[C@@H]5Oc4nc(OCc5cncc(S(C)(=O)=O)c5)c(CNCCO)cc4Cl)cccc32)nc1OCc1cncc(S(C)(=O)=O)c1)C(=O)O [Example 690]

The next lines start with the molecule.

Compound	AC50 (PD-L1) [nM]	EC50 (PD-1/PD-L1 interaction) [nM]	IC50 (PD-1/PD-L1) [nM]
N#Cc1cncc(COc2nc(O[C@H]3CCc4c(-c5cccc6c5CC[C@@H]6Oc5nc(OCc6cncc(C#N)c6)c(C6=NCCN6)cc5Br)cccc43)c(Br)cc2C2=NCCN2)c1 [Example 752]	82.5	471	0.779
COc1nc(O[C@H]2CCc3c(-c4cccc(-c5cnc6c(CNC[C@@H]7CCC(=O)N7)cn(C)c6n5)c4Cl)cccc32)c(Cl)cc1CN1CC[C@@H](C(=O)O)C1 [Example 528]	63.3	89	0.068
COc1cc(-c2cccc(-c3cccc(-c4ccc(CNC[C@@H]5CCC(=O)N5)c(OC)c4)c3Br)c2Br)ccc1CNC[C@@H]1CCC(=O)N1 [Example 477]	360	179	1.04
COc1ccc(-c2cccc(-c3cccc(COc4cc(OCc5cncc(C#N)c5)c(CN[C@@](C)(CO)C(=O)O)cc4Cl)c3C)c2C)cc1CN [Example 440]	113	251	0.115
COc1nc(O[C@H]2CCc3c(-c4cccc(-c5ccc(CNC[C@@H]6CCC(=O)N6)cc5)c4Cl)cccc32)c(Cl)cc1CNC[C@@H]1CCC(=O)N1 [Example 730]	40.7	100	0.74
COc1nc(OCc2cccc(-c3cccc(-c4ccc5c(c4)C[C@@H](N)C5)c3Cl)c2Cl)c(Br)cc1CN[C@@](C)(CO)C(=O)O [Example 435]	86.2	316	0.234
COc1nc(O[C@H]2CCc3c(-c4cccc(-c5ccc(CNC[C@@H]6CCC(=O)N6)cc5)c4Cl)cccc32)c(Cl)cc1CNC[C@@H](O)CC(=O)O [Example 732]	2.69	14	0.074
COc1nc(O[C@H]2CCc3c(-c4cccc(-c5cnc(CNC[C@@H]6CCC(=O)N6)c(OC)n5)c4Cl)cccc32)c(Cl)cc1CN1CC[C@@H](C(=O)O)C1 [Example 768]	47.4	33	0.064
COc1nc(-c2cccc(-c3cccc(-c4ccc5c(c4)[C@H](O)C[C@@H]5N)c3Cl)c2Cl)ccc1CNC[C@@H]1CCC(=O)N1 [Example 611]	408	223	0.482
COc1nc(-c2cccc(-c3cccc(-c4ccc5ncc(CN6CC7(CCC(=O)N7)C6)n5c4)c3Cl)c2Cl)ccc1CN1CC2(CCC(=O)N2)C1 [Example 614]	≥ 10000	≥ 50000	11.5
Cc1c(COc2cc(OCc3cncc(C#N)c3)c(CNC[C@@H](O)CC(=O)O)cc2Cl)cccc1-c1cccc(-c2nc3c(Cl)cc(CNC[C@@H](O)CC(=O)O)cn3n2)c1C [Example 393, (S)-4-(((2-(3′-((4-((((S)-3-carboxy-2-hydroxypropyl)amino)methyl)-2-chloro-5-((5-cyanopyridin-3-yl)methoxy)phenoxy)methyl)-2,2′-dimethyl-[1,1′-biphenyl]-3-yl)-8-chloro-[1,2,4]triazolo[1,5-a]pyridin-6-yl)methyl)amino)-3-hydroxybutanoic acid]	84	118	0.064
Cc1c(COc2cc(OCc3cncc(C(=O)O)c3)c(CN[C@@](C)(CO)C(=O)O)cc2Cl)cccc1-c1cccc(-c2ccc(OCCN3CC[C@@H](O)C3)cc2)c1C [Example 522]	74.3	195	0.064
Cc1c(COc2cc(OCc3cncc(C#N)c3)c(CN3C[C@@H](O)C[C@H]3C(=O)O)cc2Cl)cccc1-c1cccc(-c2ccc3c(c2)CC[C@H]3N(C)C)c1C [Example 377, (2S,4S)-1-(5-chloro-2-((5-cyanopyridin-3-yl)methoxy)-4-((3′-((R)-1-(dimethylamino)-2,3-dihydro-1H-inden-5-yl)-2,2′-dimethyl-[1,1′-biphenyl]-3-yl)methoxy)benzyl)-4-hydroxypyrrolidine-2-carboxylic acid]	231	262	0.178
COc1nc(-c2cccc(-c3cccc4c3CC[C@@H]4Oc3nc(OC)c(CN4CC[C@@H](c5nnn[nH]5)C4)cc3Cl)c2Cl)ccc1CNC[C@@H]1CCC(=O)N1 [Example 641]	34.7	60	0.064
COc1nc(-c2cccc(-c3cccc4c3CC[C@@H]4Oc3nc(OC)c(CN4CC[C@H](C(=O)O)C4)cc3Cl)c2Cl)ccc1CN1CC2(CCC(=O)N2)C1 [Example 714]	66.3	26	0.064
